Consider 26 compounds from patent US10975056B2 (GlaxoSmithKline Intellectual Property Development Limited, priority 2016, dated 2021).

Structures can show the parent of a compound that is named as a salt. Where two headings read alike, the source gives them in different places.

Experiment [1] deals with erythroid progenitor cells (EPCs). Nature of the experiment: Fetal hemoglobin (HbF) ELISA in day 7 erythroid progenitor cells.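 Further: for fetal hemoglobin induction normalized to vehicle-treated cells.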 Type of experiment: cell-based, human. To be noted: Homo sapiens, Erythroid progenitor cell, HbF ELISA, day 7 EPCs, 5 days; read-out: EPC ELISA (pEC50 category) (converted). The procedure, abridged:
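Day 7 EPCs from human bone marrow CD34+ cells were plated at 1,000 cells/well in media with 3 U/mL rhEPO. They were exposed to a 22-point dilution ([…]) for 5 days at 37 °C. Lysate HbF was measured by sandwich ELISA (OD450) and normalized to DMSO control wells.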
Background: In an ELISA, binding on a coated surface is turned into a signal by an enzyme label.

The target in another experiment is DNMT1 (Homo sapiens, UniProt P26358). In words: DNMT1 biochemical activity, breaklight assay and/or SPA assay.
Chain of DNMT1 (P26358 whole entry, looked up): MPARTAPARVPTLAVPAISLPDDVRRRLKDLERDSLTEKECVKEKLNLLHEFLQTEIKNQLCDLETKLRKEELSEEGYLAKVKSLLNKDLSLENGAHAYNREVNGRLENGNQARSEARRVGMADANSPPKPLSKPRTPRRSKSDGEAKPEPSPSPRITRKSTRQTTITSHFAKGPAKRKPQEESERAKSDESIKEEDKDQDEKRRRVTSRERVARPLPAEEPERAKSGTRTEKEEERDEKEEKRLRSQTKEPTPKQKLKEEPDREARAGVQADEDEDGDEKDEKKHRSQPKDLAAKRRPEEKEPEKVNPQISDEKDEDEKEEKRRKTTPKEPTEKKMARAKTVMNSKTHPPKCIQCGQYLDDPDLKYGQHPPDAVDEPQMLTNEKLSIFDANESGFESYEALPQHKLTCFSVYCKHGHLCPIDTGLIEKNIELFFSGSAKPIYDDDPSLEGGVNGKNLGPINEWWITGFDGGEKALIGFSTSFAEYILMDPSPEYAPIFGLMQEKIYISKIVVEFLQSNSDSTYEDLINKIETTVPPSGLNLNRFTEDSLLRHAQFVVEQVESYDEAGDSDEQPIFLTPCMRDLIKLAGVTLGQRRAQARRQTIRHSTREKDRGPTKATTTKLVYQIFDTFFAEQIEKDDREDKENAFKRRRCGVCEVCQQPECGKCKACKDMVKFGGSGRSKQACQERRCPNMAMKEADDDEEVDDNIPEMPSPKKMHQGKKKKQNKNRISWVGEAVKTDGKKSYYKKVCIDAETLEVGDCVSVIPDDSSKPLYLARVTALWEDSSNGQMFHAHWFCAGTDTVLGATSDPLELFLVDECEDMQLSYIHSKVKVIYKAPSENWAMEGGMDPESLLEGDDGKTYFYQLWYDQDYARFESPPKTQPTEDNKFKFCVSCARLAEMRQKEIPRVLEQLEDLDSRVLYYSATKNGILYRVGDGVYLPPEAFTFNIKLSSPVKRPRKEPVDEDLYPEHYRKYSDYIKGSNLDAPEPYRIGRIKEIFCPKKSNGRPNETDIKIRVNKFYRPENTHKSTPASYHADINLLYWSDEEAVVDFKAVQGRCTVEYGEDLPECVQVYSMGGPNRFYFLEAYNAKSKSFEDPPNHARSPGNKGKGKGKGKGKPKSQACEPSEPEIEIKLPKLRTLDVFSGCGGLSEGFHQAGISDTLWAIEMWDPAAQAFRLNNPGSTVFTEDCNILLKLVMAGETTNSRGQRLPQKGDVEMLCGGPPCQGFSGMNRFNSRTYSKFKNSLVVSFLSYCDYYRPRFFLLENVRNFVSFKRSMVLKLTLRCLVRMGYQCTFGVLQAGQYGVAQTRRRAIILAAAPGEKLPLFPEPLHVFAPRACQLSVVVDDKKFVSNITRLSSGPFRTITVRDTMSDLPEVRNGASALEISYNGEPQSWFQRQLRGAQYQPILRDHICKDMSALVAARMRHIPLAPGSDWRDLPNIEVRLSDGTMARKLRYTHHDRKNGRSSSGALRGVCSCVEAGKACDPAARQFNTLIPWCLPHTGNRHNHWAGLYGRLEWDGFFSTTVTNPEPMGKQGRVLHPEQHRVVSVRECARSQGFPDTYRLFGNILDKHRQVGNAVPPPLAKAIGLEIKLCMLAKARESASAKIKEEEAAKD
Setting [2] is: binned activity in either the breaklight or the SPA assay.
Where [3] appears, read: binned activity in either the breaklight or the SPA assay, read-out: DNMT1 BioChemical (pIC50 category) (converted).
Setting [4] is: breaklight assay and/or SPA assay, repeated experimental runs.

With `CCc1c(C#N)c(SC(C(N)=O)c2ccccc2)nc(N(C)CC(=O)N2CC[C@H](CO)C2)c1C#N` (stereo partly drawn) [Example 648, 2-((3,5-dicyano-4-ethyl-6-((2-((S)-3-(hydroxymethyl)pyrrolidin-1-yl)-2-oxoethyl)(methyl)amino)pyridin-2-yl)thio)-2-phenylacetamide], the EC50 in experiment [1] is less than 0.316 µM. Besides, on DNMT1 (setting [2]), the “DNMT1 BioChemical (pIC50 category)” value was “D (Category D: ≥6.5)”.

For the compound `CCc1c(C#N)c(SCc2ccc(CNC(C)=O)cc2)nc(SC(C(N)=O)c2ccccc2)c1C#N` (stereo not shown) [Example 336, 2-(6-(4-(Acetamidomethyl)benzylthio)-3,5-dicyano-4-ethylpyridin-2-ylthio)-2-phenylacetamide], the EC50 in experiment [1] is 1 to 31.6 µM. The IC50 at DNMT1 (setting [3]) was 0.316 to 1 µM.

As for `CCc1c(C#N)c(SCc2ccc(N(C)S(C)(=O)=O)cc2)nc(N2CCC(N3CCCC3)CC2)c1C#N` [Example 582, N-(4-(((3,5-dicyano-4-ethyl-6-(4-(pyrrolidin-1-yl)piperidin-1-yl)pyridin-2-yl)thio)methyl)phenyl)-N-methylmethanesulfonamide], in experiment [1], the EC50 was less than 0.316 µM. Moreover, the “DNMT1 BioChemical (pIC50 category)” value at DNMT1 (setting [2]) is given as “D (Category D: ≥6.5)”.

For `CCc1c(C#N)c(SC(C(N)=O)c2ncccc2F)nc(N2CCCN(C)CC2)c1C#N` (stereo not shown) [Example 220, 2-((3,5-Dicyano-4-ethyl-6-(4-methyl-1,4-diazepan-1-yl)pyridin-2-yl)thio)-2-(3-fluoropyridin-2-yl) acetamide], in experiment [1], the EC50 was less than 0.316 µM. Moreover, the IC50 on DNMT1 (setting [3]) was 0.316 to 1 µM.

In the case of `CCc1c(C#N)c(SC(C(N)=O)c2ccccc2)nc(N2CCC(N3C(=O)CCC3=O)CC2)c1C#N` (stereo not shown) [Example 252, 2-((3,5-Dicyano-6-(4-(2,5-dioxopyrrolidin-1-yl)piperidin-1-yl)-4-ethylpyridin-2-yl)thio)-2-phenylacetamide], the EC50 in experiment [1] is less than 0.316 µM. Besides, the “DNMT1 BioChemical (pIC50 category)” value on DNMT1 (setting [2]) was “D (Category D: ≥6.5)”.

For `CCc1c(C#N)c(SCc2ccc(N(C)S(C)(=O)=O)cc2)nc(N2CC[C@H](CNC(=O)CN)C2)c1C#N` [Example 650, (R)-2-amino-N-((1-(3,5-dicyano-4-ethyl-6-((4-(N-methylmethylsulfonamido)benzyl)thio)pyridin-2-yl)pyrrolidin-3-yl)methyl)acetamide], the EC50 in experiment [1] is 1 to 31.6 µM. At DNMT1 (setting [2]), the “DNMT1 BioChemical (pIC50 category)” value is “D (Category D: ≥6.5)”.

As to `CCc1c(C#N)c(SC(C(N)=O)c2ccccc2)nc(N(C)CC(=O)N(C)CCCO)c1C#N` (stereo not shown) [Example 665, 2-((6-((2-amino-2-oxo-1-phenylethyl)thio)-3,5-dicyano-4-ethylpyridin-2-yl)(methyl)amino)-N-(3-hydroxypropyl)-N-methylacetamide], the EC50 in experiment [1] is less than 0.316 µM. For the same compound, at DNMT1 (setting [2]), the “DNMT1 BioChemical (pIC50 category)” value is given as “D (Category D: ≥6.5)”.

As for `CCc1c(C#N)c(SC(C(N)=O)c2ccccc2)nc(N2CC(OC)C2)c1C#N` (stereo not shown) [Example 54, 2-((3,5-Dicyano-4-ethyl-6-(3-methoxyazetidin-1-yl)pyridin-2-yl)thio)-2-phenylacetamide], the EC50 in experiment [1] is 1 to 31.6 µM. Further, the IC50 at DNMT1 (setting [3]) was 0.316 to 1 µM.

Consider `CCc1c(C#N)c(SC(C(N)=O)c2ccccc2)nc(N2CC[C@H](ONC(=N)N)C2)c1C#N` (stereo partly drawn) [Example 625, 2-((3,5-dicyano-4-ethyl-6-((S)-3-(guanidinooxy)pyrrolidin-1-yl)pyridin-2-yl)thio)-2-phenylacetamide], for which the EC50 in experiment [1] is less than 0.316 µM. At DNMT1 (setting [2]), the “DNMT1 BioChemical (pIC50 category)” value was “D (Category D: ≥6.5)”.

Consider `CCc1c(C#N)c(SCc2ccc(N(C)S(C)(=O)=O)cc2)nc(N2CCC(NCCOC)CC2)c1C#N` [Example 557, N-(4-(((3,5-dicyano-4-ethyl-6-(4-((2-methoxyethyl)amino)piperidin-1-yl)pyridin-2-yl)thio)methyl)phenyl)-N-methylmethanesulfonamide], for which the EC50 in experiment [1] was less than 0.316 µM. Also, the “DNMT1 BioChemical (pIC50 category)” value at DNMT1 (setting [2]) is “D (Category D: ≥6.5)”.

Consider `CCc1c(C#N)c(SC(C(N)=O)c2ccccc2)nc(N(C)CCN2CCC[C@H]2C)c1C#N` (stereo partly drawn) [Example 459, 2-((3,5-dicyano-4-ethyl-6-(methyl(2-((R)-2-methylpyrrolidin-1-yl)ethyl)amino)pyridin-2-yl)thio)-2-phenylacetamide], for which, in experiment [1], the EC50 was less than 0.316 µM. Moreover, at DNMT1 (setting [2]), the “DNMT1 BioChemical (pIC50 category)” value is reported as “D (Category D: ≥6.5)”.

In the case of `CCc1c(C#N)c(SCc2ccc(N(C)S(C)(=O)=O)cc2)nc(N2CCC(NC(=O)C(C)(C)N)CC2)c1C#N` [Example 572, 2-amino-N-(1-(3,5-dicyano-4-ethyl-6-((4-(N-methylmethylsulfonamido)benzyl)thio)pyridin-2-yl)piperidin-4-yl)-2-methylpropanamide], in experiment [1], the EC50 was less than 0.316 µM. Besides, the “DNMT1 BioChemical (pIC50 category)” value on DNMT1 (setting [2]) is on record as “D (Category D: ≥6.5)”.

Consider `CCc1c(C#N)c(SC(C(N)=O)c2ccccc2)nc(N(C)CC(=O)NCCn2cnnc2)c1C#N` (stereo not shown) [Example 686, N-(2-(4H-1,2,4-triazol-4-yl)ethyl)-2-((6-((2-amino-2-oxo-1-phenylethyl)thio)-3,5-dicyano-4-ethylpyridin-2-yl)(methyl)amino)acetamide], for which the EC50 in experiment [1] is 1 to 31.6 µM. For the same compound, the “DNMT1 BioChemical (pIC50 category)” value on DNMT1 (setting [2]) is “D (Category D: ≥6.5)”.

`CCc1c(C#N)c(SC(C(N)=O)c2ccccc2)nc(N2CCC(NC(C)(C)C(=O)OC)CC2)c1C#N` (stereo not shown) [Example 487, methyl 2-((1-(6-((2-amino-2-oxo-1-phenylethyl)thio)-3,5-dicyano-4-ethylpyridin-2-yl)piperidin-4-yl)amino)-2-methylpropanoate]: the EC50 in experiment [1] is less than 0.316 µM. For the same compound, at DNMT1 (setting [2]), the “DNMT1 BioChemical (pIC50 category)” value is given as “D (Category D: ≥6.5)”.

Take `CCc1c(C#N)c(SC(C(N)=O)c2ccccc2)nc(N2CCC(C(N)=O)C2)c1C#N` (stereo not shown) [Example 388, 1-(6-((2-Amino-2-oxo-1-phenylethyl)thio)-3,5-dicyano-4-ethylpyridin-2-yl)pyrrolidine-3-carboxamide]: in experiment [1], the EC50 is 1 to 31.6 µM. Also, the IC50 on DNMT1 (setting [3]) is 0.316 to 1 µM.

As to `CCc1c(C#N)c(SC(C(N)=O)c2ccc(CC(N)=O)cc2)nc(N2CCCN(C)CC2)c1C#N` (stereo not shown) [Example 400, 2-(4-(2-Amino-2-oxoethyl)phenyl)-2-(3,5-dicyano-4-ethyl-6-(4-methyl-1,4-diazepan-1-yl)pyridin-2-ylthio)acetamide], the EC50 in experiment [1] was 1 to 31.6 µM. For the same compound, the “DNMT1 BioChemical (pIC50 category)” value at DNMT1 (setting [2]) was “D (Category D: ≥6.5)”.

For `CCc1c(C#N)c(SC(C(N)=O)c2ccccc2)nc(N2CCOC(CN)C2)c1C#N` (stereo not shown) [Example 562, 2-((6-(2-(aminomethyl)morpholino)-3,5-dicyano-4-ethylpyridin-2-yl)thio)-2-phenylacetamide], in experiment [1], the EC50 is less than 0.316 µM. Moreover, the “DNMT1 BioChemical (pIC50 category)” value at DNMT1 (setting [2]) was “D (Category D: ≥6.5)”. For the same compound, the “average pIC50 against DNMT1” value at DNMT1 (setting [4]) is more than 6.5. The IC50 on DNMT1 (breaklight assay and/or SPA assay, repeated experimental runs, read-out: average pIC50 against DNMT1 (converted)) was 0.0794 µM.

`CCc1c(C#N)c(S[C@@H](C(N)=O)c2ccccc2)nc(N2CC[C@@H](N)[C@H](F)C2)c1C#N` [Example 518, (R)-2-((6-((3R,4R)-4-amino-3-fluoropiperidin-1-yl)-3,5-dicyano-4-ethylpyridin-2-yl)thio)-2-phenylacetamide, Trifluoroacetic acid salt]: the EC50 in experiment [1] was less than 0.316 µM. The “DNMT1 BioChemical (pIC50 category)” value on DNMT1 (setting [2]) is “D (Category D: ≥6.5)”.

Take `CCc1c(C#N)c(SCc2ccc(NC(C)=O)c(F)c2)nc(N2CCCN(C)CC2)c1C#N` [Example 362]: the EC50 in experiment [1] is more than 31.6 µM. At DNMT1 (setting [3]), the IC50 is 0.316 to 1 µM.

Regarding `CCc1c(C#N)c(SCc2ccc(CNC(C)=O)cc2)nc(N2CCNC(=O)C2)c1C#N` [Example 329], the EC50 in experiment [1] is 1 to 31.6 µM. Besides, the IC50 at DNMT1 (setting [3]) was 0.316 to 1 µM.

Take `CCOc1c(C#N)c(SC(C(N)=O)c2ccccc2)nc(N2CCCN(CCO)CC2)c1C#N` (stereo not shown) [Example 193]: in experiment [1], the EC50 was 0.316 to 1 µM. Besides, at DNMT1 (setting [2]), the “DNMT1 BioChemical (pIC50 category)” value is “D (Category D: ≥6.5)”.

Take `CCc1c(C#N)c(SCc2ccc(CNC(=O)CN)cc2)nc(N2CCCN(C)CC2)c1C#N` [Example 80, 2-Amino-N-(4-(((3,5-dicyano-4-ethyl-6-(4-methyl-1,4-diazepan-1-yl)pyridin-2-yl)thio)methyl)benzyl)acetamide]: in experiment [1], the EC50 is 0.316 to 1 µM. For the same compound, the “DNMT1 BioChemical (pIC50 category)” value on DNMT1 (setting [2]) is recorded as “D (Category D: ≥6.5)”. For the same compound, the “average pIC50 against DNMT1” value at DNMT1 (setting [4]) is reported as more than 6.5.

Consider `CCc1c(C#N)c(SC(C(N)=O)c2ccccc2)nc(N(C)CC(=O)N2C[C@H](O)C[C@H](O)C2)c1C#N` (stereo partly drawn) [Example 659, 2-((3,5-dicyano-6-((2-((3R,5S)-3,5-dihydroxypiperidin-1-yl)-2-oxoethyl)(methyl)amino)-4-ethylpyridin-2-yl)thio)-2-phenylacetamide], for which the EC50 in experiment [1] is less than 0.316 µM. The “DNMT1 BioChemical (pIC50 category)” value on DNMT1 (setting [2]) is given as “D (Category D: ≥6.5)”.

For the compound `CCc1c(C#N)c(SC(C(N)=O)c2ccccc2)nc(N(C)CC(=O)NCC2(CO)CC2)c1C#N` (stereo not shown) [Example 673, 2-((6-((2-amino-2-oxo-1-phenylethyl)thio)-3,5-dicyano-4-ethylpyridin-2-yl)(methyl)amino)-N-((1-(hydroxymethyl)cyclopropyl)methyl)acetamide], the EC50 in experiment [1] was less than 0.316 µM. The “DNMT1 BioChemical (pIC50 category)” value on DNMT1 (setting [2]) is “D (Category D: ≥6.5)”.

`N#Cc1c(SC(C(N)=O)c2ccncc2)nc(N2CCNCC2)c(C#N)c1C1CC1` (stereo not shown) [Example 30, 2-((3,5-dicyano-4-cyclopropyl-6-(piperazin-1-yl)pyridin-2-yl)thio)-2-(pyridin-4-yl)acetamide]: in experiment [1], the EC50 is more than 31.6 µM. The IC50 on DNMT1 (setting [3]) was 0.316 to 1 µM.

Consider `N#Cc1c(SC(C(N)=O)c2ccccc2)nc(N2CCC(OCCN)CC2)c(C#N)c1C1CC1` (stereo not shown) [Example 656, 2-((6-(4-(2-aminoethoxy)piperidin-1-yl)-3,5-dicyano-4-cyclopropylpyridin-2-yl)thio)-2-phenylacetamide], for which the EC50 in experiment [1] was 1 to 31.6 µM. Moreover, at DNMT1 (setting [2]), the “DNMT1 BioChemical (pIC50 category)” value is “D (Category D: ≥6.5)”.
